Results taken from article PMC5942814 (PLoS ONE, 2018).
Several values for one entry are separate records, joined by “and”; a condition that tells them apart may be missing. Identical values can stand only once. Entries after “also recorded” stand apart in the source; their conditions may differ.

Experiments:
[1] = Pharmacokinetics of SNF472 administered as an i.v. bolus; format: in vivo, Wistar rats; conditions: for C0: rat plasma phytate, extrapolated concentration at time 0
Procedure: Blood was collected at 5, 15, 60 and 120 min.
(§1) Due to the limitations in obtaining many sequential blood samples from rats, blood samples were only acquired from each animal at three of the nine time-points. Consequently, the area under the curves (AUCs) could not be determined for individual animals and mean AUCs were therefore used to assess dose linearity.
(§2) Following sampling, blood was collected into K3EDTA anticoagulant tubes, centrifuged at 3,500 rpm for 10 min at 4 °C and stored at -80°C pending quantification via UPLC®-MS using the method described by Tur et al.

[2] = Pharmacokinetics of SNF472 administered as a s.c. bolus; format: in vivo, Wistar rats; conditions: rat
Procedure: as §1, §2

[3] = Pharmacokinetics of SNF472 via 4 h i.v. infusion in control rats; format: in vivo, Wistar rats; conditions: for AUC(0→t) / Cmax: Day 1 (control) rats
Procedure: (§3) The experiment was performed based on a model described by Terai and co-workers[27]. Uremia was induced in 10 male Wistar rats weighing ± 275 g via 10 daily oral administrations of 600 mg/kg adenine (days 1–10). Two further oral doses of 300 ng/kg α-calcidol were administered on days 11 and 13.
as §1, §2

[4] = Pharmacokinetics of SNF472 via 4 h i.v. infusion in adenine-induced uremic rats; format: in vivo, Wistar rats; conditions: for AUC(0→t) / Cmax: Day 13 (uremic) rats
Procedure: as §3, §1, §2

[5] = system: vitamin D3-induced cardiovascular calcification; test: Prevention of calcification induced by vitamin D; format: in vivo, Sprague Dawley rats
Procedure: Experiments were performed with 20 male Crl:OF Sprague Dawley rats weighing ± 350 g (Charles River Laboratories International, Inc. L’Arbresle, France). Animals were divided into four groups. […] Calcification was induced by 5 consecutive daily oral administrations of 75 kIU/kg vitamin D3 (Fort Dodge, Girona, Spain), starting on day 3 of treatment. Five sham-treated animals with no calcification induction served as controls. Rats were sacrificed 14 days after induction of calcification, and organs collected. Blood was obtained via heart puncture in anesthetized animals immediately before sacrifice.
(§4) Aorta and heart were removed at sacrifice, lyophilized for 24 h and weighed. Lyophilized organs were digested using a 1:1 HNO3:HClO4 mixture in a dry bath incubator for 2–4 h at 180°C and subsequently diluted with MilliQ™ water to a final volume of 10 ml. Calcium and phosphorus contents in serum, heart and aorta were quantified via inductively coupled plasma optical emission spectrometry (ICP-OES) (Perkin-Elmer SL, Optima 5300DV spectrometer)[26].

[6] = system: vitamin D3-induced cardiovascular calcification (progression); test: Inhibition of calcification progression induced by vitamin D; format: in vivo, Sprague Dawley rats; conditions: 10 and 60 mg/kg s.c. daily
Procedure: Experiments were performed with 48 male Crl:OF Sprague Dawley rats weighing ± 250 g (Charles River Laboratories International, Inc. L’Arbresle, France) divided into 6 groups. Calcification was induced by 3 consecutive daily s.c. administrations of 100 kIU/kg vitamin D3 (Fort Dodge, Girona, Spain). Four groups were used as controls to evaluate calcification progression throughout the 14 days of study. The animals received daily s.c. injections of vehicle (NaCl 0.9%), starting 5 days after calcification induction. […] Group 1 animals were sacrificed on day 5 to evaluate calcification. Groups 2 and 3 were sacrificed on days 9 and 12, respectively, to follow the progression of calcification in control animals. Groups 4, 5 and 6 were sacrificed on day 14. Blood was obtained via heart puncture in anesthetized animals immediately before sacrifice.
as §4

[7] = system: cardiovascular calcification in adenine-induced uremic rats; test: Inhibition of calcification in a rat model of uremia (adenine + α-calcidol); format: in vivo, Wistar rats
Procedure: as §2
All rats were treated daily with adenine (600 mg/kg, suspended in 1% carboxymethyl cellulose, administered orally) for the first 10 days to induce uremia and α-calcidol (300 ng/kg in olive oil, administered orally) three times a week from days 11 to 19 to accelerate and homogenize the development of cardiovascular calcification. On day 19, all surviving animals were sacrificed and blood and tissue samples collected. Blood was obtained via heart puncture in anesthetized animals immediately before sacrifice.
as §4, with “Lyophilized” for “Aorta and heart were removed at sacrifice, lyophilized for 24 h and weighed. Lyophilized”
Alkaline phosphatase (ALP) activity (ref. OSR6103), and creatinine (OSR6178) and urea (ref. OSR6134) levels were determined in serum using the Beckman Coulter assay kit (Brea, CA, USA).

[8] = single i.v. bolus 10 mg/kg, rat
[9] = 4 h i.v. infusion 10 mg/kg, uremic rats
[10] = 1 mg/kg i.v. every other day (e.o.d.)
[11] = 50 mg/kg 4 h i.v. infusion daily, uremic rats

## O=P([O-])(O)OC1C(OP(=O)([O-])O)C(OP(=O)([O-])O)C(OP(=O)([O-])O)C(OP(=O)([O-])O)C1OP(=O)([O-])O.[Na+].[Na+].[Na+].[Na+].[Na+].[Na+] (centres unmarked) [SNF472, hexasodium salt of myo-inositol hexaphosphate]
[1]; single i.v. bolus 1 mg/kg, rat
  AUC(0→t): 3.491 µg·h/mL
  Cl: 0.29 L/h/kg
  MRT (0→∞): 99 min
[1]; single i.v. bolus 1 mg/kg
  C0: 36.775 µg/mL
[1]; single i.v. bolus 5 mg/kg, rat
  AUC(0→t): 19.234 µg·h/mL
  MRT (0→∞): 19.8 min
[1]; single i.v. bolus 5 mg/kg
  C0: 84.561 µg/mL
[1]; [8]
  AUC(0→t): 38.752 µg·h/mL
  MRT (0→∞): 11.4 min
[1]; single i.v. bolus 10 mg/kg
  C0: 156.75 µg/mL
[2]; single s.c. bolus 10 mg/kg
  AUC(0→t): 1.633 µg·h/mL
  Cl/F: 0.22 L/h/kg
  Cmax: 4.876 µg/mL
  MRT (0→∞): 28.2 min
[2]; single s.c. bolus 30 mg/kg
  AUC(0→t): 32.646 µg·h/mL
  Cl/F: 0.27 L/h/kg
  Cmax: 61.014 µg/mL
  MRT (0→∞): 28.8 min
[2]; single s.c. bolus 100 mg/kg
  AUC(0→t): 139.603 µg·h/mL
  Cl/F: 0.21 L/h/kg
  Cmax: 263.264 µg/mL
  MRT (0→∞): 29.4 min
[3]; 4 h i.v. infusion 10 mg/kg
  AUC(0→t): 16.027 µg·h/mL
[3]; 4 h i.v. infusion 10 mg/kg, maximum at 240 min
  Cmax: 5.548 µg/mL
[3]; 4 h i.v. infusion 10 mg/kg, control rats
  steady state during the infusion period: steady state was not achieved
[3]; 4 h i.v. infusion 50 mg/kg
  AUC(0→t): 145.212 µg·h/mL
  Cmax: 45.141 µg/mL
[3]; 4 h i.v. infusion 50 mg/kg, control rats
  time at which steady state was reached: 60 min
[4]; 4 h i.v. infusion 10 mg/kg
  AUC(0→t): 3.877 µg·h/mL
[4]; 4 h i.v. infusion 10 mg/kg, level at 240 min
  Cmax: 1.877 µg/mL
[4]; [9]
  time at which low-level steady state was observed: 60 min
  time at which maximum levels were reached: ≤ 30 min
[4]; 4 h i.v. infusion 50 mg/kg
  AUC(0→t): 51.665 µg·h/mL
  Cmax: 16.218 µg/mL
[5]; 1 mg/kg i.v. daily
  inhibition of aorta calcium vs vehicle: 60%
  inhibition of heart calcium vs vehicle: 74% and 74.4%
[5]; 1 mg/kg i.v. daily, control 14.75 mg/dL, significantly increased
  serum phosphorus: 18.96 mg/dL
[5]; 1 mg/kg i.v. daily, vitamin D3 75 kIU/kg p.o. x5, vehicle 3.35 mg/g
  mean heart calcium content: 1.06 mg/g
[5]; 1 mg/kg i.v. daily, vitamin D3 75 kIU/kg p.o. x5, vehicle 91.1 mg/g
  mean aortic calcium content: 36.8 mg/g
[5]; 1 mg/kg i.v. daily, vs sham (8.72 mg/dL) and vitamin D control (10.50 mg/dL)
  serum calcium: statistically significant higher levels than sham and control groups
[5]; [10]
  inhibition of aorta calcium vs vehicle: 56.2%
  inhibition of heart calcium vs vehicle: 70.4%
[5]; non-uremic rats, vitamin D3 model
  inhibition of CVC in non-uremic rats: 60–70%
[6]
  serum calcium levels: not significantly affected
  serum phosphorus levels on day 14 vs control: No differences
[6]; started 5 days after calcification induction
  progression of cardiac calcification: completely blocked; also recorded: completely inhibited further progression
[7]; 50 mg/kg 4 h i.v. infusion daily, 12 uremic rats per group, 4 died in control group
  mortality (animals died): 7 animals
[7]; [11]
  inhibition of development of calcification in aorta: up to 80%
  mortality vs control group: no significant differences
  serum creatinine vs control: No significant differences
  serum urea vs control: No significant differences
[7]; 50 mg/kg 4 h i.v. infusion daily, uremic rats, control 17.6 mg/dL, not significant
  circulating (serum) phosphorus: 19.9 mg/dL
[7]; 50 mg/kg 4 h i.v. infusion daily, uremic rats, control 295 U/L, not significant
  mean serum ALP activity: 725 U/L
[7]; 50 mg/kg 4 h i.v. infusion daily, uremic rats, control median 1.6 mg/g
  median heart calcium content: 0.2 mg/g
[7]; 50 mg/kg 4 h i.v. infusion daily, uremic rats, control median 65.0 mg/g
  median aorta calcium content: 12.8 mg/g
[7]; 50 mg/kg 4 h i.v. infusion daily, uremic rats, significant vs control
  reduction in serum calcium levels: 17%
[7]; 50 mg/kg 4 h i.v. infusion, uremic rats
  signs of hypocalcemia (dyspnea, muscle spasms, convulsions): no signs of hypocalcemia
[7]; non-uremic animals (day 0), end of 4 h i.v. infusion 50 mg/kg
  circulating phytate levels: ~ 150,000 ng/mL
[7]; uremic animals, during and after 4 h of SNF472 infusion
  decrease in circulating phytate: 90%
